This note sets out measurements from paper PMC10499603, “Polθ is phosphorylated by PLK1 to repair double-strand breaks in mitosis” (Nature, 2023).

One data set concerns BRCA2^−/− cells. Kind of data set: Clonogenic survival, BRCA2^−/−. The format is cell-based, human. Particulars: Rucaparib 1 μM, 1 h in mitosis. How it is done:
(§1) For mitotic cells: cells were blocked in G2 using RO3306 (5 μM), released, then blocked in mitosis by nocodazole and subsequently seeded for clonogenic survival. Polθ-mAID cells were blocked 4 h in RO3306 (5 μM) with or without IAA (500 μM) and released in nocodazole with or without IAA for 1 h. In the case of PARPi treatment, cells were blocked 16 h in RO3306 (5 μM) and released in nocodazole with or without Rucaparib (1 μM) for 1 h. After shake off, mitotic cells were washed twice with warm media, counted and seeded for clonogenic survival. For interphase cells: growing cells were treated with IAA (500 μM), or Rucaparib (1 μM) for indicated time, washed twice with warm media and counted. For clonogenic assay upon siRNA transfection, 150,000 cells were plated per well of a 6-well plate and transfected the same day with indicated siRNA. The day after, cells were washed twice, counted and seeded for clonogenic survival. For each condition, two concentrations of cells (BRCA2^−/− cells: 500 and 2000 cells; wild-type cells: 50 and 150 cells) were seeded per well of a 6-well plate. Finally, 10 to 14 days after seeding, colonies were stained with blue methylene (Sigma, 1808) for 2 h at room temperature, washed in water, air-dried overnight and scored manually.

Data set [1] relates to mitotic BRCA2^−/− cells. Kind of data set: Metaphase spreads, chromosomal abnormalities. Particulars: Rucaparib, 1 h in mitosis. In kind it is cell-based, human. How it is done: Cells were blocked in G2 with RO3306 (5 μM) for 16 h, released, then blocked in mitosis by nocodazole and subsequently treated with Rucaparib for 1 h. After shake off, mitotic cells were centrifuged and subsequently resuspended in a pre-warmed hypotonic solution (0.075 M KCl) and maintained at 37 °C for 15 min. Cells were then centrifuged, and pellets were fixed in fresh methanol and stored at −20 °C. After metaphase spreading, air-dried slides were stained with a Gurr/Giemsa/Acetone solution (Gibco, 10582013; Giemsa (KaryoMAX Giemsa stain solution, Gibco, 10092013)) for 5 min and then rinsed twice with Gurr buffer. Slides were air-dried and neo-mounted with anhydrous mounting medium (Merck, 109016). Images were acquired at 100× magnification using DeltaVision (Deconvolution) Image Restoration Microscope.

The subject of data set [2] is mitotic BRCA2^−/− cells. The experiment in a line: γH2AX / DSB formation in mitotic cells. The format is cell-based, human. Particulars: Rucaparib 1 μM, 1 h in mitosis. The protocol: (§2) Cells grown on coverslips were fixed for 15 min in 2% paraformaldehyde, permeabilized for 10 min in 0.5% Triton X-100, blocked for 30 min in BSA 5%, 0.1% Triton X-100, immunostained for 1 h with primary antibodies, 45 min with secondary antibodies (Highly Cross-Adsorbed Secondary Antibodies Alexa Fluor, ThermoFisher Scientific) and mounted Vectashield mounting medium containing DAPI (Vector Laboratories). The same protocol was applied to mitotic cells, which were collected by shake off and centrifuged onto glass slides using a cytospin centrifuge (400g, 5 min) before fixation. […] Biotin azide-EdU click-it reaction was performed after fixation and permeabilization by incubating cells with a mix of Picolyl biotin, CuSO4, THPTA (Jena Bioscience) and sodium ascorbate in PBS for 30 min in the dark followed by an incubation with streptavidin conjugated Alex fluor 647 antibody (ThermoFisher Scientific) during 1 h at room temperature. Images were taken at 60× or 100× magnification using Upright Spinning disk Confocal Microscope (Roper/Zeiss) or at 40× magnification using DeltaVision (Deconvolution) Image Restoration Microscope. All images were taken with a Z-stack of 0.4 μM on 8 μM range around focus and projected using maximum intensity projection. Images were analysed using the Fiji software. All scale bars represent 5 μm unless stated otherwise.

Data set [3] concerns Polθ recruitment to mitotic DSBs. The experiment in a line: Polθ recruitment to laser microirradiated stripes in mitosis. In kind it is cell-based, human. Particulars: PARPi (Rucaparib), laser microirradiation. How it is done: Laser micro-irradiation was performed with a two-photon Ti:Saphire laser (Mai Tai DeepSee, Spectra Physics) at 800 nm with 20% power (from 2.1 W) on an inverted laser scanning confocal microscope equipped with spectral detection and a multi-photon laser (LSM880NLO/Mai Tai Laser, Zeiss, Spectra Physics), using a 40× objective NA1.3 oil DICII PL APO (420852-9870). Images were analysed using the ‘plot Z-axis profile’ function of Fiji (version 2.1.0/1.53c). X-ray irradiations were performed using the CIXD Dual Irradiator (RadeXp platform, Institut Curie).

In a further data set the test system is wild-type cells. Kind of data set: Clonogenic survival, wild-type. As to conditions: Rucaparib 1 μM, 1 h in mitosis. In kind it is cell-based, human. How it is done: as §1
A further data set deals with Polθ foci in mitosis. Kind of data set: Polθ recruitment to DSBs in mitosis under PLK1 inhibition. The format is cell-based, human. Particulars: wild-type Polθ expressing cells, PLK1i (Volasertib, 200 nM). The protocol:
as §2, with “[…] Images were mounted in SoftWoRx and analysed using the Fiji software (1.53c). […]” for “All scale bars represent 5 μm unless stated otherwise.”

Another data set concerns Polθ phosphorylation. Kind of data set: Label-free MS quantification of Polθ phospho-sites in mitotic HeLa GFP-Polθ cells. As to conditions: nocodazole 16 h, volasertib during last hour, IP 500 mM NaCl, five experiments. In kind it is cell-based, Homo sapiens. The protocol:
For the identification of Polθ binding partners by mass spectrometry, Polθ immunoprecipitation was performed as described above in 5 mg of nuclear extract of HEK-293T NeonGreen-POLQ knock-in cells. Lysates were incubated with mNeonGreen-Trap Magnetic Agarose beads (Chromotek) for 2 h at 4 °C and beads were washed twice with 150 mM NaCl buffer, once with 300 mM NaCl and three times in 25 mM ammonium bicarbonate. Finally, beads were resuspended in 100 µl 25 mM ammonium bicarbonate and digested by adding 0.2 μg of trypsin/LysC (Promega) for 1 h at 37 °C. Samples were then loaded into custom-made C18 StageTips packed by stacking one AttractSPE disk (SPE-Disks-Bio-C18-100.47.20 Affinisep) and 2 mg beads (186004521 SepPak C18 Cartridge Waters) into a 200 µl micropipette tip for desalting. Peptides were eluted using a ratio of 40:60 MeCN:H2O + 0.1% formic acid and vacuum concentrated to dryness. Peptides were reconstituted in injection buffer (0.3% TFA) before liquid chromatography–tandem mass spectrometry (LC–MS/MS) analysis by using an RSLCnano system (Ultimate 3000, Thermo Scientific) coupled to an Orbitrap Exploris 480 mass spectrometer (Thermo Scientific) as described previously. Mass spectrometry analysis was performed on three independent experiments. NeonGreen-Trap Magnetic Agarose beads incubated in HEK native cell extracts were used as control. For Polθ phosphorylated sites identification by mass spectrometry, Hela cells expressing GFP–Polθ were blocked 16 h in nocodazole. DMSO or Volasertib was added during the last hour of nocodazole treatment. 5 mg of nuclear extract were incubated with GFP Trap Magnetic Agarose beads (Chromotek) for 2 h at 4 °C and beads were washed once with 150 mM NaCl buffer, twice with 300 mM NaCl and twice with 500 mM NaCl buffer. Finally, beads were resuspended in 100 µl 25 mM Ammonium bicarbonate and digested by adding 0.2 μg of trypsin/LysC (Promega) for 1 h at 37 °C. Samples were then desalted and peptides were reconstituted in injection buffer before LC–MS/MS analysis as described previously in the Polθ binding partners identification. Mass spectrometry analysis was performed on five independent experiments. GFP Trap Magnetic Agarose beads incubated in HeLa native cell extracts were used as controls. […] Beads were resuspended, digested and desalted, and then peptides were reconstituted in injections buffer before LC–MS/MS analysis, as described for Polθ binding partners identification and by using an Orbitrap Eclipse mass spectrometer. Mass spectrometry analysis was performed on five independent experiments. Pull-downs of streptavidin beads incubated in nuclear extract of HeLa cells were used as control.

The next data set deals with mitotic end joining. The experiment in a line: Mitotic end-joining repair assay (extrachromosomal substrate, qPCR). In kind it is cell-based, human. Particulars: PLK1i (Volasertib, 200 nM), mitotic cells, substrate 150 ng, 1.5 h. An excerpt: To assess mitotic end-joining repair, a DNA repair substrate was designed to mimic resected DNA ends containing four microhomologies, as previously described. The repair substrate was built by ligating a PCR product (GFP sequence) to DNA oligonucleotide duplexes on both sides. The PCR product (747 bp) was amplified from a GFP sequence (PCAG vector, Addgene) using the following oligonucleotide sequences (Fwd core GFP: […], Rev core GFP: […]), digested by the BsaI-HF v2 enzyme (NEB) to reveal 4 nucleotides (nts) complementary to the DNA oligonucleotide duplexes and finally, purified (Gel and PCR cleanup kit Macherey-Nagel). In parallel, two oligonucleotide duplexes (1 and 2) with ~70 nts overhangs were made after annealing (95 °C 10 min, 25 °C 30 min) of the following oligonucleotides. Oligonucleotides for duplex 1 (17 nt dsDNA, 69 nt ssDNA): oligo 1-A, […]; oligo 1-B, […]. Oligonucleotides for duplex 2 (15 nt dsDNA, 71 nt ssDNA): oligo 2-A, […]; oligo 2-B: […]. […]
To measure DNA repair efficiency, a qPCR was performed both on the GFP sequence (to control for the DNA repair substrate transfection) as well as on potential end-joining repair products. Mitotic end-joining repair efficiency was calculated using ΔΔCt between GFP qPCR and end-joining qPCR using SYBR Green Master Mix (ThermoFisher Scientific).

For the next data set, the system named is Polθ nuclear bodies. Kind of data set: Polθ nuclear bodies in G1 after siRNA. The format is cell-based, human. Particulars: siRNA knockdown, G1 cells. How it is done: Transfection of siRNA oligonucleotides (Eurofins) was performed using Lipofectamine RNAiMax (ThermoFisher Scientific) following the manufacturer’s instructions.
as §2, with “All images were taken with a Z-stack of 0.4 μM on 8 μM range around focus and projected using maximum intensity projection.” left out, “All scale bars represent 5 μm unless stated otherwise.” left out

With `CNCc1ccc(-c2[nH]c3cc(F)cc4c3c2CCNC4=O)cc1` [Rucaparib], the “clonogenic survival / cell killing” value in the data set with BRCA2^−/− cells is on record as “sufficient to kill BRCA2^−/−”; in the data set with wild-type cells, “sufficient to kill BRCA2^−/− but not wild-type cells”. Besides, the “chromosomal abnormalities (breaks and radials)” value in the data set with mitotic BRCA2^−/− cells [1] is “induced the formation of DSBs and chromosomal abnormalities”. Also, in the data set on mitotic BRCA2^−/− cells [2], the “DSB formation in mitosis” value was “induced the formation of DSBs”. Moreover, in data set [3], the “Polθ recruitment to mitotic DSBs” value is “abolished”.
On to `CC[C@@H]1C(=O)N(C)c2cnc(Nc3ccc(C(=O)N[C@H]4CC[C@H](N5CCN(CC6CC6)CC5)CC4)cc3OC)nc2N1C(C)C` [Volasertib], for which the “Polθ recruitment to DSBs in mitosis” value in the data set with Polθ foci in mitosis was “neither mutant was recruited to DSBs in mitosis (Fig. 3f, Extended Data Fig. 8a and Supplementary Video 4), similar to our observations in wild-type Polθ expressing cells under PLK1 inhibition”. Further, the “Ratio Nocodazole / Volacertib, phospho-site S1628.S1639” value in the data set on Polθ phosphorylation is recorded as 5.418. For the same compound, the “Ratio Nocodazole / Volacertib, phospho-site S1594” value with Polθ phosphorylation (adj. p 0.00104923) is listed as 1.901. Besides, the “Ratio Nocodazole / Volacertib, phospho-site S1094*” value in the data set on Polθ phosphorylation (adj. p 0.0536125, * only re-extracted peptides by MBR) was found to be 1.958. In the data set on Polθ phosphorylation (adj. p 0.0634598), the “Ratio Nocodazole / Volacertib, phospho-site T1755” value is given as 3.242. In the data set on Polθ phosphorylation (adj. p 0.115005, * only re-extracted peptides by MBR), the “Ratio Nocodazole / Volacertib, phospho-site S1436*” value is reported as 1.887. For the same compound, the “Ratio Nocodazole / Volacertib, phospho-site S1289” value in the data set on Polθ phosphorylation (adj. p 0.400471) was 3.904. Moreover, the “efficiency of mitotic end joining” value in the data set on mitotic end joining is “greatly impaired the efficiency of mitotic end joining”.
As to “CAGGACAGUCUUUCCACGAdTdT (sense CAGGACAGUCUUUCCACGATT; chemistry not fully specified) [53BP1, siRNA targeting 53BP1]”, the “Polθ nuclear body formation” value in the data set on Polθ nuclear bodies is given as “increased Polθ nuclear body formation”.
